Test results: patent publication US20040097408A1, “Compounds regulating cell proliferation and differentiation” (priority 2001, published 2004)
Several values for one entry are separate records, joined by “and”; a condition that tells them apart may be missing. Equal values may be shown once.

Columns and labels:
[1] = test system: isolated mouse liver mitochondria; assay: mitochondrial oxygen consumption (Clarke-type oxygen electrode); type: biochemical
Method: Mitochondria were isolated from liver of Balb/c7 mice by standard differential centrifugation, and resuspended in isolation buffer (0.2 M sucrose, 10 mM Tris-MOPS pH 7.4, 0.1 mM EGTA-Tris, 0.1% delipidated BSA) (Costantini et al. (1995) Toxicology (99) 77-88). Protein concentration was determined by Bradford assay. For swelling determination, changes in side scatter at 545±2.5 nm of a 0.5 mg/ml suspension of mitochondria in experimental buffer (125 mM KCl, 10 mM Tris-MOPS pH 7.4, 1 mM Pi, 5 mM glutamate, 2.5 mM malate, 10 μM EGTA-Tris, pH 7.4) were monitored by using LS-50B spectrofluorimeter. To monitor changes in mitochondrial membrane potential, the intrinsic potentiometric properties of F16 were used. Mitochondria (0.5 mg/ml) were incubated in experimental buffer with the indicated concentrations of F16 and changes in F16 fluorescence intensity were measured, using a LS-50B spectrofluorimeter at 25° C., with excitation and emission wavelengths set at 415±2.5 nm and 520±5 nm, respectively. […]
The mechanism of PTP induction by F16 was further investigated as follows. […] First, the effects of F16 were measured on basal (state 4) and uncoupled mitochondrial respiration as follows. Oxygen consumption was determined using a Clarke-type oxygen electrode equipped with thermostatic control and magnetic stirring. […]

[2] = level of F16 in serum of mice by fluorescence; type: in vivo, mouse; details: 12.5 or 25 mg/kg intraperitoneally
Method: To determine the levels of F16 present in the blood of mice after injection of F16, two mice were injected intraperitoneally with 25 mg/kg F16 and two mice were injected intraperitoneally with 12.5 mg/kg of F16. […] 40-50 μL of blood was obtained from the tail vein of the mice and placed into tubes incubated in ice and containing Heparin to a final concentration of 20U/mL of blood. Samples were centrifuged at 6,000 rpm for 3 minutes in the cold room. Serum was transfered to a clean tube and stored at −70° C. until further processing. 2 μL of serum samples were spotted onto Whatman paper, alongside with dilutions of F16 as a standard. Since F16 is a fluorescent compound (see below), the presence of F16 was deteremined by measuring its fluorescence emission using the Storm 860 (Molecular Dynamics). The concentration of F16 in serum samples was estimated by visual comparison to the intensity of the standard.

SH1.1 = assay: cell cycle phases by BrdU incorporation / FACS; type: cell-based, mouse; details: F16 3 μM, 30 hr
Method: (§1) The percentage of cells in the different phases of the cell cycle was assessed by measuring BrdU incorporation into the DNA of the cells. BrdU incorporation into DNA of untreated or F16 treated (3 μM/30-36 hr) EpH-EV and EpH-A6 cells was assessed by FACS as follows. After F16 or mock treatment, the cells were pulsed with BrdU (20 μM) for 1 hour and then fixed in 70% ethanol at −20° C. overnight. Next morning cells were washed twice with 1×PBS and the DNA was denatured by incubation of the cells in 2N HCl/0.5% Triton X-100. The cells were then washed twice in 0.1M Na2B2O7, and once in PBS. The cells were resuspended in PBS, incubated with 20 μL of anti-BrdU/FITC(Becton Dickinson) for 1 hour and subsequently washed with 1×PBS and resuspended in PBS. RNA was digested with RNaseA (1 μL of 10 mg/mL stock) at 37° C. for 30 minutes. Finally, the cells were diluted with 1 mL of 5 μg/mL propidium iodide/PBS and incubated on ice for 15 minutes. The labeled cells were analyzed using the FACSCalibur (Becton Dickinson).
(§2) The effect of F16 (3 μM) on BrdU incorporation into DNA of various Neu-induced, Ras-induced and Myc-induced tumor cells lines was examined using the same technique. The results, which are shown in Table 3, indicate that, except for 16MB9a, a myc tumor cell line that is not affected by F16, the other cell lines, all of which are sensitive to F16 show, as expected, a decrease in the percentage of cells in the S phase and an increase in the percentage of cells in G1 after 30 hr of incubation in medium containing F16 (3 μM). In some cases, an increase in the amount of cells in G2 phase was observed. This may reflect the heterogeneity of the tumor cells, some of which may have acquired defects in various cell cycle regulators as secondary events.

AC816 = assay: cell cycle phases by BrdU incorporation / FACS; type: cell-based, mouse; details: F16 3 μM, 30 hr
Method: as §1, §2

NF980 = assay: cell cycle phases by BrdU incorporation / FACS; type: cell-based, mouse; details: F16 3 μM, 30 hr
Method: as §1, §2

NAF = assay: cell cycle phases by BrdU incorporation / FACS; type: cell-based, mouse; details: F16 3 μM, 30 hr
Method: as §1, §2

[3] = test system: Myc (16MB9a, a myc tumor cell line); assay: cell cycle phases by BrdU incorporation / FACS; type: cell-based, mouse; details: Myc tumor cell line (16MB9a); F16 3 μM, 30 hr
Method: as §1, §2

n-Neu = assay: cell cycle phases by BrdU incorporation / FACS; type: cell-based, mouse; details: F16 3 μM, 30 hr
Method: as §1, §2

C[n+]1ccc(/C=C/c2c[nH]c3ccccc23)cc1.[I-] [F16]
uncoupled mitochondrial respiration [1]: inhibits uncoupled respiration | state 4 (basal) mitochondrial oxygen consumption ([1]; substrates for complexes I and II+III): increase in state 4 of mitochondrial oxygen consumption | F16 in blood 20 hours after the injection [2]: not detected | time of the maximum level of F16 in the blood ([2]; FIG. 7): 1 to 3 h | level of F16 in the blood at 7 hours after the injection ([2]; compared to standard): nanomolar range | maximum level of F16 in the blood ([2]; compared to standard): micromolar range | With F16 % G1 (SH1.1): 81.3% and 79.7% | With F16 % G2 (SH1.1): 10.4% and 13.2% | With F16 % S (SH1.1): 7.1% | With F16 % G1 (AC816): 96.8% and 95.1% | With F16 % G2 (AC816): 2.7% and 2.8% | With F16 % S (AC816): 0.1% and 0.2% | With F16 % G1 (NF980): 68.6% and 69.6% | With F16 % G2 (NF980): 12.4% and 8.9% | With F16 % S (NF980): 17.3% and 17.0% | With F16 % G1 (NAF): 86.8% | With F16 % G2 (NAF): 3.6% | With F16 % S (NAF): 4.7% | With F16 % G1 [3]: 82.7% and 83.8% | With F16 % G2 [3]: 1.5% | With F16 % S [3]: 12.8% and 12.7% | With F16 % G1 (n-Neu): 64.5% and 61.5% | With F16 % G2 (n-Neu): 15.4% and 17.8% | With F16 % S (n-Neu): 18.2% and 19.6%
